This is an account of results in patent US8273761B2, “Tricyclic compound and medical use thereof” (Takeda Pharmaceutical Company Limited, priority 2006, dated 2012).

Data set [1] concerns the target T1, human melatonin 1 receptors (human MT1 receptors) (Homo sapiens, UniProt P48039).
T1 construct: expressed in transfected cells
As to the kind of experiment: Melatonin receptor binding inhibitory test (MT1). Particulars: 2-[125I] Iodomelatonin 400 pM solution, membrane fraction of CHO-hMelR7 cells, 25° C. for 2.5 hr. The procedure:
Biochim Biophys Acta. Vol. 1219(2), pp. 251-259, 1994) to give plasmid pAKKO-hMelR7 for animal cell expression. CHO/dhfr-cells (ATCC, #CRL-9096) were plated at a concentration of 0.3×10^6 cells/dish in a 6 cm culture dish (Becton Dickinson), and cultured under the conditions of 37° C., 5% CO2 for 48 hr. The cells were transfected with pAKKO-hMelR7 plasmid DNA (5 μg) using […] Transfection Kit (Amersham, #27-9268-01). The transfected cells were cultured in Dulbecco's modified Eagle medium (DMEM) (Sigma, #D6046) containing 10% dialyzed FBS ([…]), 1× Non-Essential Amino Acid (Invitrogen, #11140-050) and 50 μg/mL Gentamycin (Invitrogen, #15750-060), and the cell line that stably expressed the plasmid gene was selected. By a receptor binding assay using 2-[^125I] […] (3) Preparation of Cellular Membrane Fraction of CHO Cell (CHO-hMelR7 and CHO-hMT2) Stably Expressing Human MT1 and MT2 Receptors CHO-hMelR7 and CHO-hMT2 cells were plated using Cellfactory (Nunc, #170009) under the conditions of 1×10^8 cells/2000 mL/flask. The cells were grown to confluent, and recovered by the following method. As the medium for CHO-hMelR7 and CHO-hMT2, MEM α containing 10% FBS and penicillin/streptomycin was used. 300 ng/mL of geneticin was added to the medium for CHO-hMT2. The medium was discarded, cells were washed twice with 200 mL of EDTA/PBS(-), 200 mL of EDTA/PBS(-) was further added, and the cells were stood still at room temperature for 20 min until they were released. The cells were recovered in four 50 mL tubes (Becton Dickinson, #352070), and centrifuged at 1,500 rpm for 10 min at 4° C. using a low speed cooling centrifuge (Hitachi, CF7D2). The supernatant was discarded, the pellets in the four tubes were suspended in 10 mL of PBS(-), and combined in one tube (Becton Dickinson, #352070). The mixture was further centrifuged at 1,500 rpm for 10 min at 4° C., and the obtained pellets were suspended in 20 mL of ice-cooled homogenizing buffer [10 mM NaHCO3, 5 mM EDTA, Protease inhibitor Complete (Roche), pH 7.4]. The cell suspension was homogenized 3 times using a polytron homogenizer at 20,000 rpm for 30 sec. The obtained homogenate was centrifuged (2,000 rpm, 10 min, 4° C.) using a low speed cooling centrifuge. The supernatant was recovered in an ultracentrifugation tube and ultracentrifuged (40,000 rpm, 60 min, 4° C.) using an ultracentrifuge (Beckman, […]). To the obtained pellets was added a suspending buffer [50 mM Tris-HCl, 1 mM EDTA, Protease inhibitor Complete (Roche), pH 7.4], and the pellets were suspended by pipetting. The protein concentration of this suspension was measured, diluted to 2 mg/mL to give cellular membrane fractions of CHO-hMelR7 and CHO-hMT2 cells. […] Protein was quantified using BCA protein assay kit (Pierce) with BSA as the standard. (4) Preparation of Membrane Fraction Suspension Immediately before use, the membrane fractions of CHO-hMelR7 and CHO-hMT2 cells of the above-mentioned (3) were diluted 20-fold with assay buffer (50 mM Tris-HCl, pH 7.7). (5) Preparation of 2-[^125I] […] (6) Binding Reaction The assay buffer (80 μL) of the above-mentioned (4) was added to each well of a 96-well plate (type 3363, Corning). […] (7) Measurement Using a cell harvester (PerkinElmer), the binding reaction mixture in each well of the 96-well plate was transferred to a treated (immersed in 50 mM Tris, pH 7.7 in advance) filter plate (UniFilter GF/C, PerkinElmer) and filtered. After filtration, the plate was washed 4 times with the assay buffer, and dried in a dryer (42° C.) for 2 hr or more. 25 μL of a liquid scintillator (MicroScint O, PerkinElmer) was added to each well of the filter plate after drying, and the luminescence of scintillator was measured by TopCount (PerkinElmer) for 1 min. Specific binding is a value obtained by subtracting nonspecific binding from the total binding.

Data set [2] deals with T2, human melatonin 2 receptors (human MT2 receptors) (Homo sapiens, UniProt P49286).
T2 construct: expressed in transfected cells
T2 sequence (P49286 1-362): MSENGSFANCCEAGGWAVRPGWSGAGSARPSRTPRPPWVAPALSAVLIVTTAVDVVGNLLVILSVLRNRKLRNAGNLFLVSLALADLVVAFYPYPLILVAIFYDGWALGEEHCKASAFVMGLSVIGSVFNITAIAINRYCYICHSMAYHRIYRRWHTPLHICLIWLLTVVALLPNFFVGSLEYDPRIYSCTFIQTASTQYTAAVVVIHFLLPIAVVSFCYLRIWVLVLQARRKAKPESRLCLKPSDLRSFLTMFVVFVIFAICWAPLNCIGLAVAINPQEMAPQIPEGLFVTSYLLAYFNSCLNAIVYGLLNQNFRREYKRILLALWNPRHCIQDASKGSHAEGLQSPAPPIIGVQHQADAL
The experiment in a line: Melatonin receptor binding inhibitory test (MT2). Particulars: 2-[125I] Iodomelatonin 1 nM solution, membrane fraction of CHO-hMT2 cells, 25° C. for 2.5 hr. The protocol: Melatonin Receptor Binding Inhibitory Test (2) Preparation of CHO-hMT2 Cells Expressing Human Melatonin 2 Receptors A cDNA fragment (SEQ ID NO: 2) encoding full-length of human melatonin 2 receptors (human MT2 receptors) was incorporated into expression vector pCMV-Script (Stratagene, #212220) to give the plasmid that was pCMV-human MT2 receptors expression vector for animal cell expression. CHO-K1 cells (ATCC, #CCL-61) were plated at the concentration of 1.5×10^5 cells/cm^2 in a 6 well plate (ASAHI TECHNO GLASS), and cultured under the conditions of 37° C., 5% CO2 for 24 hr. For gene transfection, solution obtained by blending pCMV-human MT2 receptors expression vector (1.9 μg), Lipofectamine Transfection Reagent (Invitrogen, #18324-012) (11.3 μL) and Minimum Essential Medium Eagle (MEM) medium (Sigma, M8042) (93.8 μL), and reacting at room temperature for 20 min was added to the cells per one well. The transfected cells were cultured in MEM medium containing 10% FBS (Life Technology) and 300 μg/mL Geneticin (GIBCO, #10131), and the cell line that stably expressed the plasmid gene was selected. By a receptor binding assay using 2-[^125I] […] (3) Preparation of Cellular Membrane Fraction of CHO Cell (CHO-hMelR7 and CHO-hMT2) Stably Expressing Human MT1 and MT2 Receptors CHO-hMelR7 and CHO-hMT2 cells were plated using Cellfactory (Nunc, #170009) under the conditions of 1×10^8 cells/2000 mL/flask. The cells were grown to confluent, and recovered by the following method. As the medium for CHO-hMelR7 and CHO-hMT2, MEM α containing 10% FBS and penicillin/streptomycin was used. 300 ng/mL of geneticin was added to the medium for CHO-hMT2. The medium was discarded, cells were washed twice with 200 mL of EDTA/PBS(-), 200 mL of EDTA/PBS(-) was further added, and the cells were stood still at room temperature for 20 min until they were released. The cells were recovered in four 50 mL tubes (Becton Dickinson, #352070), and centrifuged at 1,500 rpm for 10 min at 4° C. using a low speed cooling centrifuge (Hitachi, CF7D2). The supernatant was discarded, the pellets in the four tubes were suspended in 10 mL of PBS(-), and combined in one tube (Becton Dickinson, #352070). The mixture was further centrifuged at 1,500 rpm for 10 min at 4° C., and the obtained pellets were suspended in 20 mL of ice-cooled homogenizing buffer [10 mM NaHCO3, 5 mM EDTA, Protease inhibitor Complete (Roche), pH 7.4]. The cell suspension was homogenized 3 times using a polytron homogenizer at 20,000 rpm for 30 sec. The obtained homogenate was centrifuged (2,000 rpm, 10 min, 4° C.) using a low speed cooling centrifuge. The supernatant was recovered in an ultracentrifugation tube and ultracentrifuged (40,000 rpm, 60 min, 4° C.) using an ultracentrifuge (Beckman, […]). To the obtained pellets was added a suspending buffer [50 mM Tris-HCl, 1 mM EDTA, Protease inhibitor Complete (Roche), pH 7.4], and the pellets were suspended by pipetting. The protein concentration of this suspension was measured, diluted to 2 mg/mL to give cellular membrane fractions of CHO-hMelR7 and CHO-hMT2 cells. […] Protein was quantified using BCA protein assay kit (Pierce) with BSA as the standard. (4) Preparation of Membrane Fraction Suspension Immediately before use, the membrane fractions of CHO-hMelR7 and CHO-hMT2 cells of the above-mentioned (3) were diluted 20-fold with assay buffer (50 mM Tris-HCl, pH 7.7). (5) Preparation of 2-[^125I] […] (6) Binding Reaction The assay buffer (80 μL) of the above-mentioned (4) was added to each well of a 96-well plate (type 3363, Corning). […] (7) Measurement Using a cell harvester (PerkinElmer), the binding reaction mixture in each well of the 96-well plate was transferred to a treated (immersed in 50 mM Tris, pH 7.7 in advance) filter plate (UniFilter GF/C, PerkinElmer) and filtered.

Broadly, the IC50 is the concentration at which inhibition is half-maximal. Low values mean greater potency, high ones weaker potency. For orientation: melting point means the temperature of the solid-liquid transition.

T1 sequence (P48039 whole entry): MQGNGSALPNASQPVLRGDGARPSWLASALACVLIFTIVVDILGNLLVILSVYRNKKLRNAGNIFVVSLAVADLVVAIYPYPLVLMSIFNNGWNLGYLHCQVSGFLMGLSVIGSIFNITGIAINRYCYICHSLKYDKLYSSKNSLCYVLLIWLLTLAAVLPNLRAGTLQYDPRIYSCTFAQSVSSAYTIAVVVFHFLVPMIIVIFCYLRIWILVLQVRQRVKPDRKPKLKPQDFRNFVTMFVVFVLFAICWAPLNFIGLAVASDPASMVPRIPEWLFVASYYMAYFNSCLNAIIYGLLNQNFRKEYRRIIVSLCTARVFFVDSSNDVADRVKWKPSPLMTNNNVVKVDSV

Compound `CC(=O)NCCC1CCc2cnc3c(c21)CCO3` (centres unmarked) [Example 19, N-[2-(1,6,7,8-tetrahydro-2H-cyclopenta[d]furo[2,3-b]pyridin-8-yl)ethyl]acetamide] returned an IC50 in data set [1] of at most 100 nM.

Turning to `CCC(=O)NCCc1cnn2ccc3occc3c12` [Example 1, N-(2-furo[3,2-c]pyrazolo[1,5-a]pyridin-1-ylethyl)propanamide], the melting point lay within 104 to 106 °C. Moreover, the IC50 in data set [2] is at most 100 nM.

With `CCC(=O)NC/C=C1\CCc2ncc3c(c21)CCO3` [Example 32, N-[(2E)-2-(1,2,6,7-tetrahydro-8H-cyclopenta[b]furo[3,2-d]pyridin-8-ylidene)ethyl]propanamide], the melting point is 163 to 164 °C. Compound `O=C(NCCC1CCc2cnc3c(c21)CCO3)C1CC1` (centres unmarked) [Example 26, N-[2-(1,6,7,8-tetrahydro-2H-cyclopenta[d]furo[2,3-b]pyridin-8-yl)ethyl]cyclopropanecarboxamide] showed an IC50 in data set [1] of at most 100 nM.
